According to PubChem BioAssay AID1963450 (Molecular Pharmacology Branch, DTP, NCI, 2024):
Values joined by “and” are separate entries in the source; they are usually repeats but may differ in a detail not shown here. Equal entries are not always repeated. Values belong to the molecule of their own block, whether it stands above or below them.

System: 556581-035-R-J1-PDC complex spheroid growth
Experiment: Anticancer human tumor 556581-035-R-J1-PDC patient-derived ovarian carcinoma cell line growth inhibition [Asc]
Conditions: for viability, T/C: stronger effect = lower value
In short: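 Tumor cells were grown as multicellular spheroids with stromal HUVEC and mesenchymal stem cells and treated singly or in combination. Concentrations fell in half-log steps from the clinical Cmax, or from 10 microM where none was known.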

[1] = curve of first compound, second compound 0.01 µM
[2] = curve of first compound, second compound 0.0316 µM
[3] = curve of first compound, second compound 0.1 µM
[4] = curve of first compound, second compound 0.316 µM
[5] = curve of first compound, second compound 1 µM
[6] = second compound 0.01 µM, first compound 0.00949 µM
[7] = second compound 0.01 µM, first compound 0.03 µM
[8] = second compound 0.01 µM, first compound 0.0949 µM
[9] = second compound 0.01 µM, first compound 0.3 µM
[10] = second compound 0.0316 µM, first compound 0.00949 µM
[11] = second compound 0.0316 µM, first compound 0.03 µM
[12] = second compound 0.0316 µM, first compound 0.0949 µM
[13] = second compound 0.0316 µM, first compound 0.3 µM
[14] = second compound 0.1 µM, first compound 0.00949 µM
[15] = second compound 0.1 µM, first compound 0.03 µM
[16] = second compound 0.1 µM, first compound 0.0949 µM
[17] = second compound 0.1 µM, first compound 0.3 µM
[18] = second compound 0.316 µM, first compound 0.00949 µM
[19] = second compound 0.316 µM, first compound 0.03 µM
[20] = second compound 0.316 µM, first compound 0.0949 µM
[21] = second compound 0.316 µM, first compound 0.3 µM
[22] = second compound 1 µM, first compound 0.00949 µM
[23] = second compound 1 µM, first compound 0.03 µM
[24] = second compound 1 µM, first compound 0.0949 µM
[25] = second compound 1 µM, first compound 0.3 µM
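Also: spheroids exposed to agents for 7 days before viability read.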

IC50 (curve of compound): > 0.1 µM
SMILES: Cn1ncnc1[C@H]1c2n[nH]c(=O)c3cc(F)cc(c23)N[C@@H]1c1ccc(F)cc1
viability, T/C (compound 0.000316 µM): 100% and 86.8% and 84.9%
viability, T/C (compound 0.001 µM): 111% and 95.3% and 97%
viability, T/C (compound 0.00316 µM): 97.7% and 107% and 74.9%
viability, T/C (compound 0.01 µM): 106% and 99.9% and 76.3%
viability, T/C (compound 0.0316 µM): 105% and 86.6% and 94.5%
viability, T/C (compound 0.1 µM): 99.7% and 85.6% and 94.2%

IC50 (curve of first compound, second compound 0.03 µM): > 1 µM
IC50 (curve of first compound, second compound 0.0949 µM): > 1 µM
IC50 (curve of first compound, second compound 0.3 µM): > 1 µM
IC50 (curve of first compound, second compound 0.949 µM): > 1 µM
IC50 (curve of first compound, second compound 3 µM): > 1 µM
SMILES: CNC(C)C(=O)NC1CN(S(=O)(=O)c2cccc(S(=O)(=O)N3CCC4CCC(C(=O)NC(c5ccccc5)c5ccccc5)N4C(=O)C(NC(=O)C(C)NC)C3)c2)CCC2CCC(C(=O)NC(c3ccccc3)c3ccccc3)N2C1=O (centres undefined) + CCN1C(C(=O)NC23CCC(C(=O)O)(CC2)CC3)C(c2cccc(Cl)c2F)C2(C(=O)Nc3cc(Cl)ccc32)C12CCCCC2
viability, T/C (second compound 0.03 µM, first compound 0.00316 µM): 94.8%
viability, T/C (second compound 0.03 µM, first compound 0.01 µM): 82.8%
viability, T/C (second compound 0.03 µM, first compound 0.0316 µM): 97.9%
viability, T/C (second compound 0.03 µM, first compound 0.1 µM): 76.4%
viability, T/C (second compound 0.03 µM, first compound 0.316 µM): 61.8%
viability, T/C (second compound 0.03 µM, first compound 1 µM): 54.3%
viability, T/C (second compound 0.0949 µM, first compound 0.00316 µM): 88.3%
viability, T/C (second compound 0.0949 µM, first compound 0.01 µM): 98.8%
viability, T/C (second compound 0.0949 µM, first compound 0.0316 µM): 87%
viability, T/C (second compound 0.0949 µM, first compound 0.1 µM): 76.8%
viability, T/C (second compound 0.0949 µM, first compound 0.316 µM): 65.6%
viability, T/C (second compound 0.0949 µM, first compound 1 µM): 60.5%
viability, T/C (second compound 0.3 µM, first compound 0.00316 µM): 108%
viability, T/C (second compound 0.3 µM, first compound 0.01 µM): 97.5%
viability, T/C (second compound 0.3 µM, first compound 0.0316 µM): 106%
viability, T/C (second compound 0.3 µM, first compound 0.1 µM): 77.3%
viability, T/C (second compound 0.3 µM, first compound 0.316 µM): 73%
viability, T/C (second compound 0.3 µM, first compound 1 µM): 57.1%
viability, T/C (second compound 0.949 µM, first compound 0.00316 µM): 85.5%
viability, T/C (second compound 0.949 µM, first compound 0.01 µM): 81.2%
viability, T/C (second compound 0.949 µM, first compound 0.0316 µM): 93.9%
viability, T/C (second compound 0.949 µM, first compound 0.1 µM): 66.8%
viability, T/C (second compound 0.949 µM, first compound 0.316 µM): 65.1%
viability, T/C (second compound 0.949 µM, first compound 1 µM): 65.5%
viability, T/C (second compound 3 µM, first compound 0.00316 µM): 105%
viability, T/C (second compound 3 µM, first compound 0.01 µM): 94.6%
viability, T/C (second compound 3 µM, first compound 0.0316 µM): 78.7%
viability, T/C (second compound 3 µM, first compound 0.1 µM): 70.8%
viability, T/C (second compound 3 µM, first compound 0.316 µM): 63.3%
viability, T/C (second compound 3 µM, first compound 1 µM): 60.5%

IC50 [1]: > 0.3 µM
IC50 [2]: > 0.3 µM
IC50 [3]: > 0.3 µM
IC50 [4]: > 0.3 µM
IC50 [5]: > 0.3 µM
SMILES: NC(=O)C(=Cn1cnc(-c2cc(C(F)(F)F)cc(C(F)(F)F)c2)n1)c1cncnc1 + CNC(C)C(=O)NC1CN(S(=O)(=O)c2cccc(S(=O)(=O)N3CCC4CCC(C(=O)NC(c5ccccc5)c5ccccc5)N4C(=O)C(NC(=O)C(C)NC)C3)c2)CCC2CCC(C(=O)NC(c3ccccc3)c3ccccc3)N2C1=O
viability, T/C (second compound 0.01 µM, first compound 0.000949 µM): 93%
viability, T/C (second compound 0.01 µM, first compound 0.003 µM): 85.2%
viability, T/C [6]: 63.7%
viability, T/C [7]: 66.8%
viability, T/C [8]: 90.1%
viability, T/C [9]: 72.6%
viability, T/C (second compound 0.0316 µM, first compound 0.000949 µM): 105%
viability, T/C (second compound 0.0316 µM, first compound 0.003 µM): 86%
viability, T/C [10]: 87.9%
viability, T/C [11]: 79.2%
viability, T/C [12]: 75.7%
viability, T/C [13]: 82%
viability, T/C (second compound 0.1 µM, first compound 0.000949 µM): 70.7%
viability, T/C (second compound 0.1 µM, first compound 0.003 µM): 79.5%
viability, T/C [14]: 76.1%
viability, T/C [15]: 50%
viability, T/C [16]: 64.1%
viability, T/C [17]: 63.3%
viability, T/C (second compound 0.316 µM, first compound 0.000949 µM): 76.5%
viability, T/C (second compound 0.316 µM, first compound 0.003 µM): 75.8%
viability, T/C [18]: 71.7%
viability, T/C [19]: 65.8%
viability, T/C [20]: 65.3%
viability, T/C [21]: 62.2%
viability, T/C (second compound 1 µM, first compound 0.000949 µM): 76.9%
viability, T/C (second compound 1 µM, first compound 0.003 µM): 73%
viability, T/C [22]: 66.7%
viability, T/C [23]: 63%
viability, T/C [24]: 59.7%
viability, T/C [25]: 53.3%

IC50 (curve of first compound, second compound 0.00316 µM): > 3 µM
IC50 [1]: > 3 µM
IC50 [2]: 1.96 µM
IC50 [3]: 1.21 µM
IC50 [4]: 0.278 µM
IC50 [5]: 0.184 µM
SMILES: Cc1nc(N2CCC3(CC2)COC(C)C3N)c(CO)nc1Sc1ccnc(N)c1Cl (centres undefined) + CNC(C)C(=O)NC1CN(S(=O)(=O)c2cccc(S(=O)(=O)N3CCC4CCC(C(=O)NC(c5ccccc5)c5ccccc5)N4C(=O)C(NC(=O)C(C)NC)C3)c2)CCC2CCC(C(=O)NC(c3ccccc3)c3ccccc3)N2C1=O
viability, T/C (second compound 0.00316 µM, first compound 0.00949 µM): 107%
viability, T/C (second compound 0.00316 µM, first compound 0.03 µM): 95.9%
viability, T/C (second compound 0.00316 µM, first compound 0.0949 µM): 90.2%
viability, T/C (second compound 0.00316 µM, first compound 0.3 µM): 79.4%
viability, T/C (second compound 0.00316 µM, first compound 0.949 µM): 80%
viability, T/C (second compound 0.00316 µM, first compound 3 µM): 49.1%
viability, T/C [6]: 107%
viability, T/C [7]: 94.5%
viability, T/C [8]: 76%
viability, T/C [9]: 73.8%
viability, T/C (second compound 0.01 µM, first compound 0.949 µM): 64.9%
viability, T/C (second compound 0.01 µM, first compound 3 µM): 53.2%
viability, T/C [10]: 91.4%
viability, T/C [11]: 81.8%
viability, T/C [12]: 75.3%
viability, T/C [13]: 58.5%
viability, T/C (second compound 0.0316 µM, first compound 0.949 µM): 59%
viability, T/C (second compound 0.0316 µM, first compound 3 µM): 45.9%
viability, T/C [14]: 86.3%
viability, T/C [15]: 78.9%
viability, T/C [16]: 71.8%
viability, T/C [17]: 55.4%
viability, T/C (second compound 0.1 µM, first compound 0.949 µM): 58.4%
viability, T/C (second compound 0.1 µM, first compound 3 µM): 40.4%
viability, T/C [18]: 74.8%
viability, T/C [19]: 63.4%
viability, T/C [20]: 59.4%
viability, T/C [21]: 46.2%
viability, T/C (second compound 0.316 µM, first compound 0.949 µM): 46.3%
viability, T/C (second compound 0.316 µM, first compound 3 µM): 38.3%
viability, T/C [22]: 61.2%
viability, T/C [23]: 61.9%
viability, T/C [24]: 51%
viability, T/C [25]: 46.8%
viability, T/C (second compound 1 µM, first compound 0.949 µM): 40.8%
viability, T/C (second compound 1 µM, first compound 3 µM): 28.9%
